Reference: PubChem BioAssay (NCI)
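Compound exposure: 48 hours, 5 concentrations, 96-well plates. At the GI50, growth is halved.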

Assays:
Experiment in all cases: NCI anticancer screen, dose series, 48 h; in the data active = GI50 below about 0.43 µM; inactive = the rest
SNB-75 CNS = test system: SNB-75 CNS
SNB-19 CNS = test system: SNB-19 CNS
RPMI-8226 leukemia = test system: RPMI-8226 leukemia
COLO 205 colon = test system: COLO 205 colon
U251 CNS = test system: U251 CNS
NCI-H522 lung = test system: NCI-H522 lung
HT29 colon = test system: HT29 colon
UO-31 renal = test system: UO-31 renal
K-562 leukemia = test system: K-562 leukemia

Measured: GI50

O=C1C2C(C(=O)N1c1ccc(OCc3ccccc3)cc1)C1c3ccccc3C2C2CCCCN21 (centres undefined)
inactive: SNB-75 CNS 61.4 µM | SNB-19 CNS 47.6 µM | RPMI-8226 leukemia 64 µM | COLO 205 colon 73.3 µM | U251 CNS 41.5 µM | NCI-H522 lung 53.5 µM | HT29 colon 79.7 µM | UO-31 renal 32.7 µM | K-562 leukemia 59.8 µM
